Assay results from patent US6500466B2, “Chlorhexidine formulations, new chlorhexidine salts, solutions containing these and their use” (Degussa AG, priority 1998, dated 2002).

How the values were obtained:
[1] = background statement; cited from earlier work
[2] = Storage trials: production of p-chloroaniline in aqueous 20 wt. % solutions and in powdered mixtures (FIG. 1, FIG. 2); type: physicochemical; settings: aqueous solution stored at constant 40° C.
Description: The composition and appearance of gluconate solutions are subject to the requirements of the European Pharmacopoeia and the American Pharmacopoeia. One of the purity requirements is a concentration of p-chloroaniline limited to 500 ppm. In a reaction which is the reverse of forming the chlorhexidine base from hexamethylenebicyanoguanidine and p-chloroaniline, p-chloroaniline can be reversibly eliminated from these solutions on dissolving the base in D(+) glucono-6-lactone, the internal ester of D(+)-gluconic acid, wherein the solutions discolor and become increasingly yellow to brown. Decomposition of chlorhexidine solutions depends on the pH of the solution and in particular on the storage temperature. Tests show (FIG. 1), that the permissible p-chloroaniline values are exceeded after about one month when stored at a constant temperature of 40° C. Solutions of CHD-gluconate which are stable over the long-term have not hitherto been disclosed. The use of these solutions in regions with a tropical climate is therefore a problem which has not hitherto been resolved satisfactorily. Therefore, there is a need for chlorhexidine salt solutions which tend to decompose to only a small extent when used under extreme climatic conditions, in particular at high temperatures.
The problem of long-term p-chloroaniline production cannot be solved by the invention of new anions. […]

[3] = Light sensitivity and stability compared with the gluconate; type: physicochemical

## [H]/N=C(\N/C(=N/[H])NCCCCCCNC(=N)NC(=N)Nc1ccc(Cl)cc1)Nc1ccc(Cl)cc1 [Chlorhexidine, 1,1′-hexamethylene-bis-[5,4-chlorophenyl]-biguanide]
[1]
  solubility in water: very low solubility in water

## N=C(NCCCCCCNC(=N)NC(=N)Nc1ccc(Cl)cc1)NC(=N)Nc1ccc(Cl)cc1.O=C(O)[C@H](O)[C@@H](O)[C@H](O)[C@H](O)CO.O=C(O)[C@H](O)[C@@H](O)[C@H](O)[C@H](O)CO [Chlorhexidine digluconate]
[2]
  time after which permissible p-chloroaniline values (500 ppm) are exceeded: about one

## chlorhexidine ascorbate
[3]
  light sensitivity relative to the gluconate: more light sensitive
  stability relative to the gluconate: more unstable than the gluconate
